# Where “and” joins values, the source holds several entries; their conditions need not be identical. Identical values can stand only once.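 Test compounds were applied to cells in 96-well plates for 48 hours at 5 doses. Here, GI50 denotes the concentration required for 50% inhibition of growth. TGI marks complete inhibition of growth.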
# Assays:
# Assay in all cases: DTP human tumour cell line panel, 48 h
# OVCAR-5 ovarian = tested on: OVCAR-5 ovarian
# MOLT-4 leukemia = tested on: MOLT-4 leukemia
# HT29 colon = tested on: HT29 colon
# SK-MEL-2 melanoma = tested on: SK-MEL-2 melanoma
# NCI-H23 lung = tested on: NCI-H23 lung
# SW-620 colon = tested on: SW-620 colon
# MDA-MB-231 breast = tested on: MDA-MB-231 breast
# NCI-H226 lung = tested on: NCI-H226 lung
# SK-MEL-28 melanoma = tested on: SK-MEL-28 melanoma
# LOX IMVI melanoma = tested on: LOX IMVI melanoma
Compound,TGI (OVCAR-5 ovarian),TGI (MOLT-4 leukemia) [µM],TGI (HT29 colon),TGI (SK-MEL-2 melanoma),TGI (NCI-H23 lung),TGI (SW-620 colon),TGI (MDA-MB-231 breast) [µM],TGI (NCI-H226 lung) [µM],TGI (SK-MEL-28 melanoma),TGI (LOX IMVI melanoma),GI50 (OVCAR-5 ovarian)
CC(NC(=O)Cc1ccccc1)NC(=O)C(C)C(=O)Nc1ccccc1 (stereo not given),> 100 µM,> 100,> 100 µM,> 100 µM,> 100 µM,> 100 µM,> 100,74.3,,,
COC(=O)C(=Cc1cc(OC)c(OC)c(OC)c1-c1cc2c(cc1C1(C)OCCS1)OCO2)C(=O)OC (stereo not given),> 100 µM,> 100,> 100 µM,69.6 µM,> 100 µM,> 100 µM,,> 100,> 100 µM,> 100 µM,
CCCCCC#CCOC(=O)C(=[N+]=[N-])P(=O)(c1ccccc1)c1ccccc1,> 10 µM,> 10,> 10 µM,,> 10 µM,> 10 µM,> 10,> 10,> 10 µM,> 10 µM,
O=C(O)CN1CCN2CCCCCN(CC1)CCN(CC(=O)O)CC2,> 100 µM,,> 100 µM,> 100 µM,,> 100 µM,> 100,> 100,> 100 µM,> 100 µM,
CCCNc1ncnc2c1ncn2C,,> 100,,> 100 µM,> 100 µM,> 100 µM,> 100,> 100,> 100 µM,> 100 µM,
Cc1nn(-c2ccccc2)c2c1C(c1cc3ccccc3nc1Cl)NC(=O)N2 (stereo not given),43.8 µM,,35.4 µM,29.5 µM,37.6 µM,36.7 µM,59.3,60.1,,44.8 µM,
COc1ccc(C(=O)/C=C/c2ccc(OCCCOc3ccc(/C=C/C(=O)c4ccc(OC)cc4)cc3)cc2)cc1,> 100 µM,> 100,> 100 µM,> 100 µM,,> 100 µM,> 100,> 100,> 100 µM,,
CSc1nc(SC)c2c(C#N)[nH]nc2n1,,> 100,> 100 µM,> 100 µM,> 100 µM,> 100 µM,,> 100,> 100 µM,> 100 µM,
O=C(O)CN1CCNCCN(CC(=O)O)CCN(CC(=O)O)CCNCC1,> 100 µM,> 100,> 100 µM,> 100 µM,,> 100 µM,> 100,> 100,> 100 µM,> 100 µM,
CCCCCCCCCCCCCCCCNc1cccc2ccccc12,,> 100,,,> 100 µM,> 100 µM,,> 100,> 100 µM,> 100 µM,
Cc1nc(C)c(C(=O)NNC(=O)C[N+](C)(C)C)cc1C(=O)NNC(=O)C[N+](C)(C)C,> 100 µM,,> 100 µM,> 100 µM,> 100 µM,> 100 µM,> 100,> 100,> 100 µM,> 100 µM,
CC(=O)NC1C(OCc2ccccc2)OC(CO)C(O)C1OCC(=O)N[C@@H](C)C(=O)N[C@H](CCC(=O)NCCCNc1c2ccccc2nc2cccc([N+](=O)[O-])c12)C(N)=O (stereo not given in full),5.8 µM,11,0.199 µM,,0.0835 µM,,0.45,0.287,0.751 µM,0.259 µM,
O=C1CCC(c2ccccc2)=NN1c1nsc2ccccc12,> 100 µM,> 100,> 100 µM,> 100 µM,> 100 µM,> 100 µM,,,> 100 µM,> 100 µM,
COc1cc(OC)c2c(=O)cc(-c3ccc(OC)c(OC)c3OC)oc2c1,> 100 µM,,> 100 µM,> 100 µM,> 100 µM,> 100 µM,,> 100,> 100 µM,> 100 µM,
CSc1cc(-c2cccs2)sc1-c1cc(SC)c(-c2sc(-c3sc(-c4cccs4)cc3SC)cc2SC)s1,> 100 µM,> 100,> 100 µM,> 100 µM,> 100 µM,> 100 µM,> 100,,> 100 µM,> 100 µM,
CC(O)CNC(=O)C(C)Oc1ccc(OCC2CCCCC2)cc1 (stereo not given),,> 100,> 100 µM,> 100 µM,,,,> 100,> 100 µM,> 100 µM,
O=P(O)(O)C(N=C(Nc1ccccc1)Nc1ccccc1)P(=O)(O)O,> 100 µM,,> 100 µM,,> 100 µM,,> 100,> 100,,> 100 µM,
S=c1c2cn[nH]c2nc2scc(-c3ccc(Cl)cc3)n12,29.4 µM,60.1,32.6 µM,46.6 µM,30.1 µM,22.3 µM,> 100,,46.6 µM,23.3 µM,

Compound,TGI (OVCAR-5 ovarian),TGI (MOLT-4 leukemia) [µM],TGI (HT29 colon),TGI (SK-MEL-2 melanoma),TGI (NCI-H23 lung),TGI (SW-620 colon),TGI (MDA-MB-231 breast) [µM],TGI (NCI-H226 lung) [µM],TGI (SK-MEL-28 melanoma),TGI (LOX IMVI melanoma),GI50 (OVCAR-5 ovarian)
Cc1c(O)nc(-n2[nH]c3c(c2=O)CCCC3)[nH]c1=O,> 100 µM,> 100,> 100 µM,> 100 µM,> 100 µM,> 100 µM,> 100,> 100,> 100 µM,,
CCOC(=O)N1CCC(N[C@@H]2c3cc4c(cc3C(c3cc(OC)c(O)c(OC)c3)C3C(=O)OC[C@@H]32)OCO4)CC1 (stereo not given in full),14 µM and 17.4 µM,,15.5 µM and 10.7 µM,14.9 µM and 11.3 µM,2.62 µM and 2.69 µM,13.7 µM and 7.55 µM,,,27.1 µM and 16.4 µM,7.97 µM and 12.4 µM,3.3 µM and 7.49 µM
COc1cc2c(cc1OC)C(C(c1ccccc1)c1ccccc1)N(C)CC2 (stereo not given),> 100 µM,> 100,> 100 µM,> 100 µM,> 100 µM,> 100 µM,,> 100,> 100 µM,> 100 µM,
CCOC(=O)c1c(-c2ccc(O)c(OC)c2)c(C#N)c(=S)n(C2OC(CO)C(O)C(O)C2O)c1-c1ccccc1 (stereo not given),> 100 µM,> 100,> 100 µM,,> 100 µM,> 100 µM,,> 100,> 100 µM,> 100 µM,
CNc1cc2c(c3ccccc13)C(CCl)CN2C(=O)c1cc2cc(OC)c(OC)c(OC)c2[nH]1 (stereo not given),,0.023,0.168 µM,0.0197 µM,0.00191 µM,0.00733 µM,,0.067,0.0351 µM,0.00811 µM,
COC(C)(C)C1(O)CC[C@@H](C)CC1=O (stereo not given in full),> 100 µM,> 100,> 100 µM,,> 100 µM,> 100 µM,,,> 100 µM,,
NS(=O)(=O)c1ccc(NC(=S)/N=C/C2=C(O)c3ccccc3C2=O)cc1,> 100 µM,> 100,,> 100 µM,> 100 µM,> 100 µM,> 100,,> 100 µM,> 100 µM,
COc1cccc(N2C(Cl)C(=O)C2c2c[nH]c3ccccc23)c1 (stereo not given),> 100 µM,> 100,> 100 µM,> 100 µM,> 100 µM,> 100 µM,,,> 100 µM,,
O=C1OCC/C1=N/O,> 100 µM,> 100,> 100 µM,> 100 µM,> 100 µM,> 100 µM,,> 100,> 100 µM,,
Cc1nc(C)c(N2CCN([N+](=O)[O-])CC2)c(=O)[nH]1,,> 100,> 100 µM,,> 100 µM,> 100 µM,> 100,> 100,> 100 µM,> 100 µM,
O=C(O)[C@H]1CCCN1CP(=O)(O)CN1CCC[C@@H]1C(=O)O,> 100 µM,> 100,> 100 µM,> 100 µM,> 100 µM,> 100 µM,> 100,,> 100 µM,> 100 µM,
COc1ccc(CCN(C)C2CCC(C#N)(c3ccc(OC)c(OC)c3)CC2)cc1OC (stereo not given),> 100 µM,> 100,> 100 µM,> 100 µM,> 100 µM,> 100 µM,,> 100,> 100 µM,> 100 µM,
COc1cc(OC)cc(C(=O)CC(=O)c2cc(OC)cc(OC)c2)c1,> 100 µM,> 100,,,> 100 µM,> 100 µM,,> 100,> 100 µM,,
O=C(NCP(=O)(Oc1ccccc1)Oc1ccccc1)OCc1ccccc1,> 100 µM,> 100,> 100 µM,> 100 µM,> 100 µM,> 100 µM,,> 100,> 100 µM,> 100 µM,
O=C1c2ccccc2C(=O)N1n1c(Cc2ccc([N+](=O)[O-])cc2)n[nH]c1=O,> 100 µM,> 100,> 100 µM,> 100 µM,> 100 µM,> 100 µM,> 100,> 100,> 100 µM,,
On1c(-c2ccccc2)c(-c2ccccc2N2CCCC2)c2ccccc21,> 100 µM,> 100,> 100 µM,> 100 µM,> 100 µM,> 100 µM,,> 100,> 100 µM,> 100 µM,
C[N+](C)([O-])CCOc1cc2c(c3ccccc13)-c1ccccc1C2=O,59.2 µM,> 35.3,> 35.6 µM,33.2 µM,74.7 µM,86.3 µM,,78.8,39.1 µM,> 47.4 µM,
O=C1C=C/C(=N\N=C(c2ccccc2)c2ccccc2)O1,,> 10,> 10 µM,,> 10 µM,> 10 µM,> 10,,> 10 µM,> 10 µM,

# Source: PubChem BioAssay (NCI)
